In experiment [1] the target is human CB2 receptor (CNR2) (Homo sapiens (Human), UniProt P34972). Kind of experiment: Radioligand binding assay ([3H]-CP-55,940), membranes of HEK cells expressing human CNR2. Conditions: 2.6 nM [3H]-CP-55,940, HEK cell membranes, 1 h at 30° C. How it is done:
(§1) Radioligand Binding Assay
(§2) The affinity of the compounds of the invention for cannabinoid receptors was determined using recommended amounts of membrane preparations (PerkinElmer) of human embryonic kidney (HEK) cells expressing the human CNR1 or CNR2 receptors in conjunction with 1.5 or 2.6 nM [3H]-CP-55,940 (Perkin Elmer) as radioligand, respectively. Binding was performed in binding buffer (50 mM Tris, 5 mM MgCl2, 2.5 mM EDTA, and 0.5% (wt/vol) fatty acid free BSA, pH 7.4 for CB1 receptor and 50 mM Tris, 5 mM MgCl2, 2.5 mM EGTA, and 0.1% (wt/vol) fatty acid free BSA, pH 7.4 for CB2 receptor) in a total volume of 0.2 mL for 1 h at 30° C. shaking. The reaction was terminated by rapid filtration through microfiltration plates coated with 0.5% polyethylenimine (UniFilter GF/B filter plate; Packard). Bound radioactivity was analyzed for Ki using nonlinear regression analysis (Activity Base, ID Business Solution, Limited), with the Kd values for [^3H]CP55,940 determined from saturation experiments.

Experiment [2] deals with human CB1 receptor (CNR1) (Homo sapiens (Human), UniProt P21554). The experiment can be described thus: Radioligand binding assay ([3H]-CP-55,940), membranes of HEK cells expressing human CNR1. The settings on record: 1.5 nM [3H]-CP-55,940, HEK cell membranes, 1 h at 30° C. How it is done: as §1, §2

Some results are limits rather than exact numbers.

human CB2 receptor (CNR2), sequence (P34972 whole entry): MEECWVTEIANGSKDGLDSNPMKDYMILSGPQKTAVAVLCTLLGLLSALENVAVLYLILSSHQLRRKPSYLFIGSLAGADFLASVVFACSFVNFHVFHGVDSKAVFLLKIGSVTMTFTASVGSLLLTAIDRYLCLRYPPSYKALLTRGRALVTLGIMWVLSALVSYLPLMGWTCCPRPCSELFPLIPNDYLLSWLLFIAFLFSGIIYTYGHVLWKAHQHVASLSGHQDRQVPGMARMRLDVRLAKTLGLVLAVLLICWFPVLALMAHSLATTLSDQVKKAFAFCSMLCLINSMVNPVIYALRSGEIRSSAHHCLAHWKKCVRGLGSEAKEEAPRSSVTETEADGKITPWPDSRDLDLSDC
human CB1 receptor (CNR1), sequence (P21554 whole entry): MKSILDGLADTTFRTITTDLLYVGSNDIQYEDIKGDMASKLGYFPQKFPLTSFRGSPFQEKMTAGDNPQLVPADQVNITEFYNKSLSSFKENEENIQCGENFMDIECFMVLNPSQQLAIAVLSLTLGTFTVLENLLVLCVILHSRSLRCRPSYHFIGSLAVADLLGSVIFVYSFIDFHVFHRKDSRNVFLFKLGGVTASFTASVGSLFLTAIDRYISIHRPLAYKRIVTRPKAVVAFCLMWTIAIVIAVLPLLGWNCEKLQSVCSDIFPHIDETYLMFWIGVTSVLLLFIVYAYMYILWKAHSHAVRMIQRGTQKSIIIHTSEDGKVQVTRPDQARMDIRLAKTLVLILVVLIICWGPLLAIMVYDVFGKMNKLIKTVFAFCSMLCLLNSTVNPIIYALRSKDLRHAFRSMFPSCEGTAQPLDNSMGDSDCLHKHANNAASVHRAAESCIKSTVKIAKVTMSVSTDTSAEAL

Broadly, the Ki is the dissociation constant of the complex between target and ligand, obtained from inhibition or displacement. Higher therefore signals a looser hold on the target. For the compound `CC(C)(C)c1nc(N2CCC(F)(F)C2)c2nnn(Cc3ccccc3CCSSCCO)c2n1` [Example 29, 2-[2-[2-[[5-tert-Butyl-7-(3,3-difluoropyrrolidin-1-yl)triazolo[4,5-d]pyrimidin-3-yl]methyl]phenyl]ethyldisulfanyl]ethanol], the Ki in experiment [1] was determined as 6 nM; in experiment [2] it was 205 nM.

`CC(C)(C)c1nc(N2CCC(F)(F)C2)c2nnn(Cc3ccccc3CCS(=O)(=O)n3nnc4ccccc43)c2n1` [Example 30, 3-[[2-[2-(Benzotriazol-1-ylsulfonyl)ethyl]phenyl]methyl]-5-tert-butyl-7-(3,3-difluoropyrrolidin-1-yl)triazolo[4,5-d]pyrimidine]: the values for the Ki in experiment [1] and in experiment [2] were 246 nM and > 10000 nM, respectively.

Take `CC(C)(C)c1nc(N2CCC(F)(F)C2)c2nnn(Cc3ccccc3CCS(=O)(=O)F)c2n1` [Example 31, 2-[2-[[5-tert-Butyl-7-(3,3-difluoropyrrolidin-1-yl)triazolo[4,5-d]pyrimidin-3-yl]methyl]phenyl]ethanesulfonyl fluoride]: the Ki in experiment [1] worked out at 27 nM; in experiment [2] it was 1360 nM.

Regarding `CC(C)(C)c1nc(N2CCC(F)(F)C2)c2nnn(Cc3ccccc3CCSSc3ccccn3)c2n1` [Example 32, 5-tert-Butyl-7-(3,3-difluoropyrrolidin-1-yl)-3-[[2-[2-(pyridin-2-yldisulfanyl)ethyl]phenyl]methyl]triazolo[4,5-d]pyrimidine], the Ki in experiment [1] was found to be 72 nM; in experiment [2] it was 1860 nM.

Consider `CC(C)(C)c1nc(N2CCC(F)(F)C2)c2nnn(Cc3ccccc3CCSSCCN)c2n1` [Example 33, 2-[2-[2-[[5-tert-Butyl-7-(3,3-difluoropyrrolidin-1-yl)triazolo[4,5-d]pyrimidin-3-yl]methyl]phenyl]ethyldisulfanyl]ethanamine], for which the Ki in experiment [1] was found to be 63 nM; in experiment [2] it was 588 nM.

With `NCCSSCCc1ccccc1Cn1nnc2c(N3CCC(F)(F)C3)nc(C(F)(F)c3ccccc3)nc21` [Example 34, 2-[2-[2-[[5-[Difluoro(phenyl)methyl]-7-(3,3-difluoropyrrolidin-1-yl)triazolo[4,5-d]pyrimidin-3-yl]methyl]phenyl]ethyldisulfanyl]ethanamine], the Ki in experiment [1] turned out to be 177 nM; in experiment [2], 230 nM.

For the compound `CC(C)(C)c1nc(N2CCC(F)(F)C2)c2nnn(Cc3ccccc3CCSSCC(O)CO)c2n1` (stereo not drawn) [Example 35, 3-[2-[2-[[5-tert-Butyl-7-(3,3-difluoropyrrolidin-1-yl)triazolo[4,5-d]pyrimidin-3-yl]methyl]phenyl]ethyldisulfanyl]propane-1,2-diol], the values for the Ki in experiment [1] and in experiment [2] were 5 nM and 135 nM, respectively.

For the compound `CC(C)(C)c1nc(N2CCC(F)(F)C2)c2nnn(Cc3ccccc3SSCCO)c2n1` [Example 36, 2-[[2-[[5-tert-Butyl-7-(3,3-difluoropyrrolidin-1-yl)triazolo[4,5-d]pyrimidin-3-yl]methyl]phenyl]disulfanyl]ethanol], the figures for the Ki in experiment [1] and in experiment [2] were 95 nM and 560 nM, respectively.

As for `C#Cc1cccc(S(=O)(=O)F)c1Cn1nnc2c(N3CCC(F)(F)C3)nc(C(C)(C)C)nc21` [Example 38, 2-[[5-tert-Butyl-7-(3,3-difluoropyrrolidin-1-yl)triazolo[4,5-d]pyrimidin-3-yl]methyl]-3-ethynylbenzenesulfonyl fluoride], the Ki in experiment [1] worked out at 1 nM; in experiment [2], 311 nM.

The values above are taken from US10457685B2, “[1,2,3]triazolo[4,5-D]pyrimidine derivatives with affinity for the type-2 cannabinoid receptor” (Hoffmann-La Roche Inc., priority 2016, dated 2019).
